From patent US11046660B2, “Compounds and their use as PDE4 activators” (MIRONID LIMITED, priority 2016, dated 2021)

Assays:
Format in all cases: biochemical
full-length human PDE4B2 = target: T1, full-length human PDE4B2 (Homo sapiens, UniProt Q07343); assay: PDE4B2 short form enzyme activation radio-assay (Experiment 1, Protocol A or B); conditions: for activation at 30 µM: mean % increase in counts over basal activity
T1 construct: and the full length human PDE4B2 short isoform; made in house; cytosol fraction of cell lysate
Description: (§1) Experiment 1: Identification of PDE4 Long Form Activators of the Present Invention Using Full-Length Human PDE4 Isoforms PDE4D5, PDE4A4, PDE4B1 and PDE4B2
(§2) HEK 293 cells were transfected with pDEST™ PDE4 expression vectors using Lipofectamine LTX/Plus reagent (Invitrogen) as outlined by the manufacturer and clonal isolates expanded to obtain cell lines that stably expressed the full-length human PDE4D5, PDE4A4 and PDE4B1 long isoforms and the full length human PDE4B2 short isoform. These were called the HEK-PDE4D5, HEK-PDE4A4, HEK-PDE4B1 and HEK-PDE4B2 cell lines, respectively.
(§3) HEK-PDE4D5 cells were seeded out in 100 mm plates and incubated at 37° C. in an atmosphere of 5% CO2, 95% air. Cell lysates were prepared using KHEM buffer [50 mM KCl, 10 mM EGTA, 50 mM HEPES (pH 7.2), 1.92 mM MgCl2].
(§4) To prepare the cell lysates, the 100 mm plates containing the cells were placed on ice and washed with ice-cold PBS (phosphate buffered saline, pH 7.4). KHEM buffer (500 μl) was added to the cells. Cells were then scraped off the plate and triturated using a needle (BD Microlance™ 0.8, 40 mm). The lysed cells were then centrifuged at 2000 rpm for 10 minutes to remove cell debris and the supernatant (cell lysate containing recombinant PDE4D5) was transferred to a fresh tube and kept on ice.
(§5) The cell lysate containing recombinant PDE4D5 was transferred into a centrifuge tube and placed into an ultracentrifuge (BECKMAN COULTER) and spun at high speed (100,000 g) for 30 minutes at 4° C. The cytosol fraction was then collected and its protein amount determined using a BCA protein assay.
(§6) PDE assays were performed using a final concentration of 10 mM Tris/5 mM MgCl2 and 1 μM [^3H]-cAMP (Perkin Elmer) plus PDE4D5 cell lysate cytosol fraction, containing over-expressed PDE4D5, with and without test compound. Incubations were performed at 30° C. for 5 minutes. The samples were then placed in a boiling water bath for 2 minutes to denature the PDE enzyme, and returned to ice. Samples were allowed to cool for 10 min after which snake venom 5′-nucleotidase (25 μl, 1 mg/ml; Sigma) was added. The tubes were vortexed and incubated in a water bath at 30° C. for 10 minutes, to attain conversion of [^3H]-5′-AMP to [^3H]-adenosine, and then placed on ice. Dowex ion exchange resin (Sigma) prepared as a 1:1 Dowex: water stock was thoroughly re-suspended and diluted 2:1 with ethanol. The resulting Dowex suspension (0.4 ml) was added to each tube. Tubes were vortexed to mix and then incubated on ice for at least 15 minutes before a final vortex. The Dowex resin was pelleted by centrifugation at 13,000 g at 4° C. for 3 minutes and 150 μl of the supernatant was removed to an Eppendorf tube containing 1 ml of ScintiSafe3 scintillation fluid (Fisher). Tubes were vortexed thoroughly to mix and the recovered [^3H]-adenosine was quantified by measuring counts over 1 minute in a scintillation counter.
(§7) The % increase in counts in the presence of test compound at a particular concentration indicates the % increase in enzyme activity at that concentration.
(§8) PDE assays were performed in thin walled V-bottomed 96-well plates. The assays were performed at a final concentration of 10 mM Tris/5 mM MgCl2 plus PDE4D5 cell lysate cytosol fraction, containing over-expressed PDE4D5, with and without test compound. The lysate/compound mix were incubated together for 15 min at room temperature on an orbital shaker prior to addition of [^3H] cAMP (final concentration 1 μM [^3H] cAMP; Perkin Elmer) to a final volume of 50 μl per reaction. The reactions were then incubated for 10 minutes at 30° C., terminated by heating for 2 min at 95° C. and allowed to cool. Snake venom (12.5 μl of 1 mg/ml; Crotalus atrox, Sigma) was then added and the plates were agitated and incubated for a further 15 minutes at 30° C. […]

full-length human PDE4D5 = target: T2, full-length human PDE4D5 (Homo sapiens, UniProt Q08499); assay: PDE4D5 long form enzyme activation radio-assay (Experiment 1, Protocol A or B); conditions: for activation at 30 µM: mean % increase in counts over basal activity
T2 construct: stably expressed the full-length human PDE4D5, PDE4A4 and PDE4B1 long isoforms; made in house; cytosol fraction of cell lysate
Description: as §1, §2, §3, §4, §5, §6, §7, §8

full-length human PDE4B1 = target: T3, full-length human PDE4B1 (Homo sapiens, UniProt Q07343); assay: PDE4B1 long form enzyme activation radio-assay (Experiment 1, Protocol A or B); conditions: mean % increase in counts over basal activity
T3 construct: stably expressed the full-length human PDE4D5, PDE4A4 and PDE4B1 long isoforms; made in house; cytosol fraction of cell lysate
Description: as §1, §2, §3, §4, §5, §6, §7, §8

T3 sequence (Q07343 whole entry, canonical isoform): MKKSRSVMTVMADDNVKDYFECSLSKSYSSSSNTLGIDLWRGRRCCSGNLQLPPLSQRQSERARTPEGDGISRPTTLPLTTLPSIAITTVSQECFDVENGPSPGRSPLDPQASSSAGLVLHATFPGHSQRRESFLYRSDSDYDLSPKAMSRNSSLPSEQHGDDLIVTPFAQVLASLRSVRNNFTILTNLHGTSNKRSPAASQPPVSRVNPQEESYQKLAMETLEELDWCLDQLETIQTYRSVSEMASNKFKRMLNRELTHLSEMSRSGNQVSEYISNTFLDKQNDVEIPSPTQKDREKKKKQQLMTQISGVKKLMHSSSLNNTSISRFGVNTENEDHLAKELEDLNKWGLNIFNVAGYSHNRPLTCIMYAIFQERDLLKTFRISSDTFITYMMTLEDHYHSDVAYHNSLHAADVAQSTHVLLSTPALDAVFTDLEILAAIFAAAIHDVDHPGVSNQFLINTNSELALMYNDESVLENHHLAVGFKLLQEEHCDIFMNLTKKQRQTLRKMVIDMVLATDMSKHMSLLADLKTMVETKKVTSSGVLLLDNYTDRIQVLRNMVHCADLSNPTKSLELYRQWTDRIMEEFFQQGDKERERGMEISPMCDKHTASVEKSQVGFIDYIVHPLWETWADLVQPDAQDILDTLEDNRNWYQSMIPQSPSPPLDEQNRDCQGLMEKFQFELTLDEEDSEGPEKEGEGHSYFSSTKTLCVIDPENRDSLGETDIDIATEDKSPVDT
T1 sequence (Q07343 1-564 isoform Q07343-2): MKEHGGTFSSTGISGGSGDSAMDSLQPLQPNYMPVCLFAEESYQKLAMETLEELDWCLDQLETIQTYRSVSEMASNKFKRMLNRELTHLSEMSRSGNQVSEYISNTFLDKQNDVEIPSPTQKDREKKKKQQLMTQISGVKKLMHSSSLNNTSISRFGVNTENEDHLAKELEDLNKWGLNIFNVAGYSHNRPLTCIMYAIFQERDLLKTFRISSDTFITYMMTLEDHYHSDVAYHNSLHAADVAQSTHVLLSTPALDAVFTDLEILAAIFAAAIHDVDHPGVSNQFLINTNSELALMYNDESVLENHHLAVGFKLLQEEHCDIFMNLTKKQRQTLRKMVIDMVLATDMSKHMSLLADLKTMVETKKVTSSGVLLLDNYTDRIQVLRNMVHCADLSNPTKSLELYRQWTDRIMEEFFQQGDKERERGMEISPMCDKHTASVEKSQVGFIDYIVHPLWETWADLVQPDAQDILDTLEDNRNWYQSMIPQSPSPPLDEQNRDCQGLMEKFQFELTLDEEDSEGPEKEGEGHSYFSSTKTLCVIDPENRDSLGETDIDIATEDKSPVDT
T2 sequence (Q08499 1-745 isoform Q08499-6): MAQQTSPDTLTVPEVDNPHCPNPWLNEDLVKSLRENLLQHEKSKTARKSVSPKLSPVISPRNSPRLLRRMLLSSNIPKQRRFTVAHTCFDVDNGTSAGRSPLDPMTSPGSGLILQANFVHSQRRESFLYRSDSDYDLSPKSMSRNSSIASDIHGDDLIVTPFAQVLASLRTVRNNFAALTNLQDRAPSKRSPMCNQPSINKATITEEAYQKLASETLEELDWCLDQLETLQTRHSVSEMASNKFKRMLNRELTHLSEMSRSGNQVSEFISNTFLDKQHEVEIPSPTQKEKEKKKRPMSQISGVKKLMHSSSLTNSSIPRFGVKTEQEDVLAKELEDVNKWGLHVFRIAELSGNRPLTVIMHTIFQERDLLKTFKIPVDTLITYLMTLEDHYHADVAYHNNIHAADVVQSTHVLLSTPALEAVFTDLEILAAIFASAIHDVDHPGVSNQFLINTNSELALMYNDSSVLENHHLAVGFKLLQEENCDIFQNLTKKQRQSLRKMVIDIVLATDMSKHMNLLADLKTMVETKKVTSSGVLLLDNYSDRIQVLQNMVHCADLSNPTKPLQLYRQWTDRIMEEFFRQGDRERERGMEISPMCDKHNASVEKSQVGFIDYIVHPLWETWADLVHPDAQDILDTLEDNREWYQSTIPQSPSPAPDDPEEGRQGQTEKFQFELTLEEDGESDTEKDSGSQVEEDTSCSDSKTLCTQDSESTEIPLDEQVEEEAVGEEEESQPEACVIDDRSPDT

With CCOC(=O)c1nc(-c2ccc(Cl)c(F)c2)nn1CC(=O)NCc1ccccc1 [Example 2, Ethyl 1-[(benzylcarbamoyl)methyl]-3-(4-chloro-3-fluorophenyl)-1H-1,2,4-triazole-5-carboxylate] the activation at 30 µM (full-length human PDE4B2; Protocol A) was -2.5%, the “activation of PDE4 short form PDE4B2 (in words)” value (full-length human PDE4B2; Protocol A, FIG. 1(b)) was “lack of activation” and the activation at 30 µM (full-length human PDE4D5; Protocol A) was 92.9%. For the same compound, the “activation of PDE4 long form PDE4D5 (in words)” value (full-length human PDE4D5; Protocol A, FIG. 1(a)) was “dose dependent activation”.

An activation at 30 µM (full-length human PDE4B2; Protocol A) of -0.9% and an activation at 30 µM (full-length human PDE4D5; Protocol A) of 62.6% were found for COC(=O)c1nc(-c2ccc(Cl)c(F)c2)nn1CC(=O)NCc1ccccc1 [Example 3, Methyl 1-[(benzylcarbamoyl)methyl]-3-(4-chloro-3-fluorophenyl)-1H-1,2,4-triazole-5-carboxylate] in this work.

An activation at 30 µM (full-length human PDE4B1; Protocol B) of 80.5% was found for CCOC(=O)c1nc(-c2ccc(Cl)c(F)c2)nn1CC(=O)NCc1cccc(F)c1 [Example 4, Ethyl 3-(4-chloro-3-fluorophenyl)-1-{[(3-fluorobenzyl)carbamoyl]methyl}-1H-1,2,4-triazole-5-carboxylate] in this work.

An activation at 30 µM (full-length human PDE4B1; Protocol B) of 44% was found for CCOC(=O)c1nc(-c2ccc(Cl)c(F)c2)nn1CC(=O)NCc1cccc(OC)c1 [Example 5, Ethyl 3-(4-chloro-3-fluorophenyl)-1-{[(3-methoxybenzyl)carbamoyl]methyl}-1H-1,2,4-triazole-5-carboxylate] in this work.

An activation at 30 µM (full-length human PDE4B1; Protocol A) of 50.9% was found for NC(=O)c1nc(-c2ccc(Cl)c(F)c2)nn1CC(=O)NCc1cccc(F)c1 [Example 8, 3-(4-chloro-3-fluorophenyl)-1-{[(3-fluorobenzyl)carbamoyl]methyl}-1H-1,2,4-triazole-5-carboxamide] in this work.

An activation at 30 µM (full-length human PDE4B1; Protocol A) of 58.5% was found for COc1cccc(CNC(=O)Cn2nc(-c3ccc(Cl)c(F)c3)nc2C(N)=O)c1 [Example 9, 3-(4-chloro-3-fluorophenyl)-1-{[(3-methoxybenzyl)carbamoyl]methyl}-1H-1,2,4-triazole-5-carboxamide] in this work.

An activation at 30 µM (full-length human PDE4B1; Protocol B) of 85.1% and an activation at 30 µM (full-length human PDE4B2; Protocol B) of 23.3% were found for CNC(=O)c1nc(-c2ccc(Cl)c(F)c2)nn1CC(=O)NCc1cccc(F)c1 [Example 10, 3-(4-chloro-3-fluorophenyl)-1-{[(3-fluorobenzyl)carbamoyl]methyl}-N-methyl-1H-1,2,4-triazole-5-carboxamide] in this work.

An activation at 30 µM (full-length human PDE4B1; Protocol A) of 84.1% was found for CN(C)C(=O)c1nc(-c2ccc(Cl)c(F)c2)nn1CC(=O)NCc1cccc(F)c1 [Example 11, 3-(4-chloro-3-fluorophenyl)-1-{[(3-fluorobenzyl)carbamoyl]methyl}-N,N-dimethyl-1H-1,2,4-triazole-5-carboxamide] in this work.

An activation at 30 µM (full-length human PDE4B1; Protocol B) of 89.2% was found for CNC(=O)c1nc(-c2ccc(Cl)c(F)c2)nn1CC(=O)NCc1cccc(OC)c1 [Example 12, 3-(4-chloro-3-fluorophenyl)-1-{[(3-methoxybenzyl)carbamoyl]methyl}-N-methyl-1H-1,2,4-triazole-5-carboxamide] in this work.

An activation at 30 µM (full-length human PDE4B1; Protocol B) of 52.2% was found for COc1cccc(CNC(=O)Cn2nc(-c3ccc(Cl)c(F)c3)nc2C#N)c1 [Example 16, 2-[3-(4-chloro-3-fluorophenyl)-5-cyano-1H-1,2,4-triazol-1-yl]-N-(3-methoxybenzyl)acetamide] in this work.

An activation at 30 µM (full-length human PDE4D5; Protocol B) of 81.1% was found for COc1cccc(CNC(=O)Cn2nc(-c3ccc(Cl)c(F)c3)nc2C(=O)NC(C)C)c1 [Example 17, 3-(4-chloro-3-fluorophenyl)-1-{[(3-methoxybenzyl)carbamoyl]methyl}-N-isopropyl-1H-1,2,4-triazole-5-carboxamide] in this work.

An activation at 30 µM (full-length human PDE4D5; Protocol B) of 83.9% was found for COc1cccc(CNC(=O)Cn2nc(-c3ccc(Cl)c(F)c3)nc2C(=O)N(C)C)c1 [Example 18, 3-(4-chloro-3-fluorophenyl)-1-{[(3-methoxybenzyl)carbamoyl]methyl}-N,N-dimethyl-1H-1,2,4-triazole-5-carboxamide] in this work.

An activation at 30 µM (full-length human PDE4D5; Protocol B) of 84.1% was found for CCNC(=O)c1nc(-c2ccc(Cl)c(F)c2)nn1CC(=O)NCc1cccc(F)c1 [Example 19, 3-(4-chloro-3-fluorophenyl)-1-{[(3-fluorobenzyl)carbamoyl]methyl}-N-ethyl-1H-1,2,4-triazole-5-carboxamide] in this work.

An activation at 30 µM (full-length human PDE4B2; Protocol B) of -22.4% and an activation at 30 µM (full-length human PDE4D5; Protocol B) of 63.3% were found for COCCNC(=O)c1nc(-c2ccc(Cl)c(F)c2)nn1CC(=O)NCc1cccc(F)c1 [Example 20, 3-(4-chloro-3-fluorophenyl)-1-{[(3-fluorobenzyl)carbamoyl]methyl}-N-(2-methoxyethyl)-1H-1,2,4-triazole-5-carboxamide] in this work.

An activation at 30 µM (full-length human PDE4D5; Protocol B) of 105% was found for COCCNC(=O)c1nc(-c2ccc(Cl)c(F)c2)nn1CC(=O)NCc1cccc(OC)c1 [Example 21, 3-(4-chloro-3-fluorophenyl)-1-{[(3-methoxybenzyl)carbamoyl]methyl}-N-(2-methoxyethyl)-1H-1,2,4-triazole-5-carboxamide] in this work.

An activation at 30 µM (full-length human PDE4D5; Protocol B) of 53.1% was found for O=C(Cn1nc(-c2ccc(Cl)c(F)c2)nc1C(=O)NC1CCCCC1)NCc1cccc(F)c1 [Example 22, 3-(4-chloro-3-fluorophenyl)-1-{[(3-fluorobenzyl)carbamoyl]methyl}-N-cyclohexyl-1H-1,2,4-triazole-5-carboxamide] in this work.

An activation at 30 µM (full-length human PDE4D5; Protocol B) of 93.7% was found for CCOC(=O)c1cc(-c2ccc(Cl)cc2)nn1CC(=O)NCc1cccc(F)c1 [Example 23, Ethyl 3-(4-chlorophenyl)-1-{[(3-fluorobenzyl)carbamoyl]methyl}-1H-pyrazole-5-carboxylate] in this work.

An activation at 30 µM (full-length human PDE4D5; Protocol B) of 87.4% was found for COC(=O)c1cc(-c2cccc(OC)c2)nn1CC(=O)NCc1cccc(F)c1 [Example 24, Methyl 1-{[(3-fluorobenzyl)carbamoyl]methyl}-3-(3-methoxyphenyl)-1H-pyrazole-5-carboxylate] in this work.

An activation at 30 µM (full-length human PDE4B2; Protocol B) of 21% and an activation at 30 µM (full-length human PDE4D5; Protocol B) of 39.5% were found for CNC(=O)c1cc(-c2ccc(Cl)c(F)c2)nn1CC(=O)NCc1cccc(OC)c1 [Example 25, 3-(4-chloro-3-fluorophenyl)-1-{[(3-methoxybenzyl)carbamoyl]methyl}-N-methyl-1H-pyrazole-5-carboxamide] in this work.

An activation at 30 µM (full-length human PDE4B2; Protocol B) of 17.1% and an activation at 30 µM (full-length human PDE4D5; Protocol B) of 38.2% were found for CNC(=O)c1cc(-c2ccc(Cl)c(F)c2)nn1CC(=O)NCc1cccc(F)c1 [Example 26, 3-(4-chloro-3-fluorophenyl)-1-{[(3-fluorobenzyl)carbamoyl]methyl}-N-methyl-1H-pyrazole-5-carboxamide] in this work.

An activation at 30 µM (full-length human PDE4B2; Protocol B) of 7.6% and an activation at 30 µM (full-length human PDE4D5; Protocol B) of 75.1% were found for CCOC(=O)c1cc(-c2ccc(Cl)cc2)nn1CC(=O)NCc1cccc(OC)c1 [Example 27, Ethyl 3-(4-chlorophenyl)-1-{[(3-methoxybenzyl)carbamoyl]methyl}-1H-pyrazole-5-carboxylate] in this work.

An activation at 30 µM (full-length human PDE4D5; Protocol B) of 31.9% was found for CCc1nc(-c2ccc(Cl)c(F)c2)nn1CC(=O)NCc1cnc[nH]1 [Example 29, N-[(1H-imidazol-5-yl)methyl]-2-[3-(4-chloro-3-fluorophenyl)-5-ethyl-1H-1,2,4-triazol-1-yl]acetamide] in this work.

An activation at 30 µM (full-length human PDE4D5; Protocol B) of 87.6% was found for CCc1nc(-c2ccc(Cl)c(F)c2)cn1CC(=O)NCc1cc(Cl)cc(Cl)c1 [Example 30, 2-[4-(4-chloro-3-fluorophenyl)-2-ethyl-1H-imidazol-1-yl]-N-(3,5-dichlorobenzyl) acetamide] in this work.
